No end group written: not given here.
How the values were obtained:
[1] = test system: mouse saccule and utricle cultures; assay: Phage display panning of mouse saccule and utricle cultures, sequencing of colonies; assay type: binding; details: colonies with this sequence among one hundred colonies sequenced after four rounds of panning
Procedure: C57B1/6 Mice were purchased from Jackson Laboratory (Bar Harbour, Me.). At 8 weeks of age the mice were sacrificed and saccule and utricles were isolated under direct visualization. The cells were cultured in 100 μl DMEM/0.001 M neomycin for 48 hours as is standard. All animal protocols were approved by the University of Kansas animal research advisory committee.
A phage library (New England Biolabs, Beverly, Mass.) displaying random 7-mer peptides attached to the NH2-terminus of the pIII protein of the filamentous M13 bacteriophage was used for panning with mouse inner ear cells. In round 1 of panning, 2×10^11 plaque-forming units of the phage library in 200 μl of 1×PBS buffer were added to the inner ear cells and were incubated for 4 h at 4° C. with shaking. The cells were washed 10× with Tris-buffered saline/0.1% Tween under direct visualization and the remaining bound phage were eluted for 10 min with 100 μl of 0.2 M glycine-HCl, pH 2.2, and neutralized with 15 μl of 1 M Tris-HCl, pH 9. A 10 μl aliquot was used for tittering and the remaining eluate was used to infect early log phase ER2738 host bacteria in 20 ml LB media and amplified for 4.5 h at 37° C. with shaking. Bacteria were removed by pellet centrifugation 2×10 min at 10,000 g. The supernantant was added to ⅙ quantity 20% (w/v) polyethylene glycol-8000, 2.5 M NaCl. After overnight incubation at 4° C., the phage was pelleted by centrifugation at 15 min at 10,000 g, and resuspended in 200 μl TBS. Amplified phage product was tittered on X-gal/IPTG plates. A 10 μl aliquot from the phage pool was used to titer phage pfu/μl before and after phage amplification in E. coli. In subsequent rounds 2×10^11 plaque-forming units of the amplified phage pool from the previous round were added to mouse inner ear cells and panned was performed as previously described. All panning experiments were performed in duplicate.
After 4 rounds of panning, isolated colonies were streak plated on X-gal/IPTG plates. Individual colonies were used to infect early log phase ER2738 host bacteria in 4 ml LB media and amplified for 4.5 h at 37° C. The bacteria was pelleted by centrifugation and phage recovered from the supernatant using QIAprep Spin M13 kit (Qiagen, Valencia, Calif.) and resuspended in 50 μl molecular grade water. ssDNA quantity was determined by absorption spectrophotometry. The 7-mer peptide DNA coding regions were sequenced using a −96 gIII sequencing primer (5′-CCCTCATAGTTAGCGTAACG-3′). These sequences were translated and queried on the BLAST protein database (NCBI).
One hundred colonies were sequenced (Table 1). There were 23 colonies which translated to the peptide sequence t-v-p-q-l-t-t, which was homologous to the protein laminin. Eleven colonies which translated to the peptide sequence s-t-t-k-l-a-l, which was homologous to a sodium/hydrogen exchanger protein. Eight colonies which translated to the peptide sequence m-e-g-y-i-h-r, which was homologous to the protein cathepsin L. Two colonies each that translated to the peptide sequences h-a-i-y-p-r-h, h-s-r-l-l-d-q, i-q-s-p-h-f-f and y-a-a-h-r-s-h, which were homologous to the proteins itchy 3, discs large homolog, protocadherin and myelin transcription factor 1, respectively. The remaining colony sequences occurred only once, however within these sequences, several translated to peptides that had homology to the same protein. For example, a-h-p-h-h-s-m and h-p-h-h-r-i-f both contained the peptide sequence h-p-h-h with homology to mitogen activated protein kinase 8.

Organ of Corti = assay: Immunohistochemistry identification of phage binding regions in mouse inner ear (Organ of Corti); assay type: in vivo; details: phage 1×10^9 pfu injected into round window of neomycin-treated mice, anti-M13 immunostaining 1 hour after inoculation
Procedure: (§1) Candidate 7-mer peptide epitopes were selected from the BLAST queried sequences. Colonies were amplified in 20 ml LB media and recovered as previously described. Phage (1×10^9 pfu) were injected into the round window of mice previously treated with 1 μl 0.01 M neomycin injected into the posterior channel 48 hours prior to phage innoculation. Mice were sacrificed by intracardiac perfusion with 4% PBS buffered paraformaldehyde 1 hour after phage inoculation. The temporal bones were isolated and decalcified in Calex (Fisher Scientific, Pittsburgh, Pa.) for 24 hours. The temporal bones were embedded in paraffin and sectioned. Primary antibody directed against the M13 protein (rabbit anti-M13) in 1/100 concentration was added to tissue samples and allowed to incubate for 12 hrs at 4° C. The samples were washed in PBS and incubated with 1/50 concentration fluorescent secondary antibody (goat anti-rabbit, FITC) for 12 hrs at 4° C. After washing, tissue sections were visualized and photographed via fluorescent microscopy.
To determine the potential for identified peptide sequences to bind […] be purified individual batches of phage and injected them into the perilymph via the round window. The animals were allowed to recover and were then fixed via perfusion. Sections of the inner ear were immunostained for the presence phage to determine if the phage had been able to localize to supporting cells in vivo. […] The most common pattern of distribution that was seen was binding to the basement membrane.

Macular Organs = assay: Immunohistochemistry identification of phage binding regions in mouse inner ear (Macular Organs); assay type: in vivo; details: phage 1×10^9 pfu injected into round window of neomycin-treated mice, anti-M13 immunostaining 1 hour after inoculation
Procedure: as §1
To determine the potential for identified peptide sequences to bind in vitro be purified individual batches of phage and injected them into the perilymph via the round window. The animals were allowed to recover and were then fixed via perfusion. […]

[2] = mouse, in vivo
Description: As a screening test for balance function, mice were swim tested by dropping them from a fixed height into an opaque pool of water. […] Animals with impaired vestibular function are known to have to prolonged swim times. Mice were swim tested two months after aminoglycoside ablation followed by no treatment or treatment with Ad math1.11D.

[3] = test system: myosin VII positive hair cells; details: mouse, in vivo
Procedure: Briefly, mice were treated with an injection of neomycin 10^−3 M into the scala tympani. After 5 days animals were re-anesthetized and 1 μl of Ad.math1.11d (108 pu) were delivered via a fenestration in the posterior semicircular canal. After 4 weeks, animals were sacrificed and then processed for myosin VII immunohistochemistry.

vestibular hair cells = assay: Vestibular hair cell counts after intracochlear neomycin and adenovector atoh1 delivery; details: aminoglycoside (neomycin 10^-3 M, 2 μl into inner ear) only, n=5; untreated controls 21.8+2
Procedure: Characterization of atoh1/math1 effects were as follows. Unilateral vestibular damage was induced by injecting 2 μl of neomycin (10^−3 M) in to the inner ear of mice. After inducing unilateral vestibular dysfunction mice received an intracochlear injection of an advanced generation adenovector carrying atoh1 driven by a human CMV promoter (Admath1.11D) via the round window membrane into the scala tympani. […] After one month recovery, animals were sacrificed and processed for histology. […] Cells were identified by position of the nucleus and every fifth section was counted and expressed as cell number per 100 μm length of neuroepithelium.

| Compound | # of Common Sequences [1] | Phage binding site, Organ of Corti (Organ of Corti) | also measured |
| --- | --- | --- | --- |
| iqsphff: phage pIII NH2 terminal 7 amino acid peptide (IQSPHFF) | 2 |  |  |
| tvpqltt: phage pIII NH2 terminal 7 amino acid peptide (TVPQLTT) | 23 |  |  |
| ALQYHNL [phage pIII NH2 terminal 7 amino acid peptide] | 1 | No binding |  |
| megyihr: phage pIII NH2 terminal 7 amino acid peptide (MEGYIHR) | 8 |  |  |
| SEGRLYK [phage pIII NH2 terminal 7 amino acid peptide] | 1 | No binding |  |
| SNQLLMT [phage pIII NH2 terminal 7 amino acid peptide] | 1 | No binding |  |
| STTKLAL [phage pIII NH2 terminal 7 amino acid peptide] | 11 | No binding |  |
| ahphhsm: phage pIII NH2 terminal 7 amino acid peptide (AHPHHSM) | 1 |  |  |
| HPHHRIF [phage pIII NH2 terminal 7 amino acid peptide] | 1 | No binding |  |
| hsrlldq: phage pIII NH2 terminal 7 amino acid peptide (HSRLLDQ) | 2 |  |  |
| yaahrsh: phage pIII NH2 terminal 7 amino acid peptide (YAAHRSH) | 2 |  |  |
| THQARSV [phage pIII NH2 terminal 7 amino acid peptide] | 1 | No binding |  |
| PPRPIPM |  | No binding |  |
| MPIPRPP [phage pIII NH2 terminal 7 amino acid peptide] | 1 |  |  |
| ProThrProMeThrLeuTyr |  |  | Phage binding site, Macular Organs (Macular Organs): No binding |
| HisAlaIleTyrProArgHis (HAIYPRH; printed: HisAlaIleTyrProArgHis) [phage pIII NH2 terminal 7 amino acid peptide] | 2 |  |  |
| getrapl | 1 |  |  |
| NC[C@@H]1O[C@H](O[C@H]2[C@@H](O)[C@H](O[C@@H]3[C@@H](O)[C@H](N)C[C@H](N)[C@H]3O[C@H]3O[C@H](CN)[C@@H](O)[C@H](O)[C@H]3N)O[C@@H]2CO)[C@H](N)[C@@H](O)[C@@H]1O [aminoglycoside, neomycin] |  |  | swim time (time to initiate purposeful swimming) [2]: 22+4.2 seconds; myosin VII positive cells in macular organs [3]: only occasional myosin VII positive cells; average hair cell counts, serially sectioned saccules (vestibular hair cells): 2.2+2 /100 μm |

From patent publication US20130096070A1, “PEPTIDE TARGETING OF INNER EAR CELLS” (priority 2009, published 2013)
